Test results reported in patent US20090209474A1, “NOVEL USES FOR DRUGS TARGETING GLUTAMINE SYNTHETASE” (NEWTHERA, priority 2005, published 2009).
pKi: −log10 of the molar value. Read-outs that look alike come from different tables or passages of the source. Residues, ends and D or L forms follow the SMILES beside them.

What was measured:
[1] = tested on: glutamate metabotropic receptor; details: cited from earlier work
GS (rat liver) = GS (rat liver) (Rattus norvegicus, UniProt P09606); details: cited from earlier work
GS (sheep brain) = details: cited from earlier work
GS [2] = details: cited from earlier work
GS [3] = target: GS (Rattus norvegicus, UniProt P09606); assay type: in vivo, Wistar rats; parameters: Wistar rat brain homogenates were incubated with naftazone; from tissue; host or cells: Wistar rat brain homogenate or membranes; in A19 also liver and lungs; details: one hour after PTZ 50 mg/kg i.p.
[4] = Adrenal weight in corticosterone-administered rats; assay type: in vivo, Wistar rats
purified sheep brain GS = assay: Purified sheep brain GS activity (Meister's method, gamma-glutamylhydroxamate formation); assay type: biochemical
Wistar rat brain GS = target: T1, Wistar rat brain GS (Rattus norvegicus, UniProt P09606); assay: GS activity in Wistar rat brain homogenates; assay type: biochemical; details: in absence of 2β-ME
T1 construct: from tissue; host or cells: Wistar rat brain homogenate or membranes; in A19 also liver and lungs
Protocol: GS activity was assessed as mentioned above for purified sheep brain GS.

Wistar rats [5] = assay: PTZ-induced seizures; assay type: in vivo; details: rat, in vivo
Wistar rats [6] = assay: Forced swimming test in corticosterone-administered rats; assay type: in vivo
Wistar rats [7] = assay: Open field task in corticosterone-administered rats; assay type: in vivo; details: day 15, corticosterone 35 mg/kg s.c.; versus PCB and Control

Sequence of GS (rat liver) (P09606 2-373 limits assumed): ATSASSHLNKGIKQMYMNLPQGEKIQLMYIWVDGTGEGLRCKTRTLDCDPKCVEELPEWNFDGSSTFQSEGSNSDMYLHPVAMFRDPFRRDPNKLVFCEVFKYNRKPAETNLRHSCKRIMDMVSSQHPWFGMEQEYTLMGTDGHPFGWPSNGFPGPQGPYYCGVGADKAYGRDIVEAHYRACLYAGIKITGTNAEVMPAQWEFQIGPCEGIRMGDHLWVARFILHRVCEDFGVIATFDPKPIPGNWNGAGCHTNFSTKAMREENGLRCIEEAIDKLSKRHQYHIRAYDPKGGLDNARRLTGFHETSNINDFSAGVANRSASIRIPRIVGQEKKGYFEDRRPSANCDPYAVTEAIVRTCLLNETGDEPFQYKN
T1 sequence (P09606 2-373 limits assumed): as above
Sequence of GS (Rattus norvegicus, UniProt P09606) (P09606 2-373 limits assumed): as above

For `N[C@]1(C(=O)O)CCc2cc(C(=O)O)ccc21` (racemic) [(RS)-1-Aminoindan-1,5-dicarboxylic acid], the “activity at glutamate metabotropic receptors in words” value (shortened to “activity … in words”) [1] is listed as “mGlu1 glutamate metabotropic receptor antagonist Pellicciari et al.,1995”.
In the case of `NC(C(=O)O)c1cc(O)cc(O)c1` (racemic) [(RS)-3,5-Dihydroxyphenylglycine], the “activity … in words” value [1] is given as “Group I selective glutamate metabotropic receptor agonist (activates mGlu1 and mGlu5) Schoepp et al., 1994”.
For `NC(C(=O)O)c1cccc(O)c1` (racemic) [(RS)-3-Hydroxyphenylglycine], the “activity … in words” value [1] is listed as “Glutamate metabotropic receptor agonist Thomsen and Suzdak, 1993”.
For `O=C(O)[C@@H]1C[C@@H](C(=O)O)N1` (relative stereo) [Trans-Azetidine-2,4-dicarboxylic acid], the “activity … in words” value [1] is given as “Group I selective glutamate metabotropic receptor agonist. (activates mGlu1 and mGlu5) Kozikowski et al., 1993”.
In the case of `N[C@@]1(C(=O)O)CC[C@H](C(=O)O)C1` [1-Aminocyclopentane-cis-1,3-dicarboxylic acid], the “activity … in words” value [1] is listed as “Group I/II glutamate metabotropic receptor agonist Olverman et al., 1983”.
In the case of `CC(N)(CCP(=O)(O)O)C(=O)O` (stereo not shown) [2-Amino-2-methyl-4-phosphono butanoic acid], the pKi (GS (rat liver)) is given as 2.20.
For `C[C@@](N)(CCP(=O)(O)O)C(=O)O` [2-Amino-2-methyl-4-phosphono-butyric acid], the “activity … in words” value [1] is listed as “Selective mGlu3 glutamate metabotropic receptor antagonist Sekiyama et al., 1996”.
In the case of `NC(CCP(=O)(O)O)C(=O)O` (stereo not shown) [2-Amino-4-phosphono butanoic acid], the pKi (GS (rat liver)) is given as 3.06.
For `COC(=O)C(CCP(=O)(O)O)C(=O)O` (stereo not shown) [2-Methoxycarbonyl-4-phosphono butanoic acid], the pKi (GS (rat liver)) is listed as 2.06.
For `CC1(/C=C/c2ccccc2)C=CC=CN1` (stereo not shown) [2-Methyl-2-(phenylethenyl)pyridine], the “activity … in words” value [1] is listed as “Selective mGlu5 glutamate metabotropic receptor antagonist Varney et al., 1999”.
In the case of `CP(=O)(O)C(N)CCC(=O)O` (stereo not shown) [4-Amino-4-(hydroxymethylphosphinyl) butanoic acid], the pKi (GS (rat liver)) is given as 3.10.
For `CC(N)(CCC(=O)O)[PH](=O)CO` (stereo not shown) [4-Amino-4-(hydroxymethylphosphinyl)-4-methyl butanoic acid], the pKi (GS (rat liver); read-out: Ki) is listed as 2.02.
For `NC(CCC(=O)O)P(=O)(O)O` (stereo not shown) [4-Amino-4-phosphono butanoic acid], the pKi (GS (rat liver)) is given as 2.89.
In the case of `Cc1ccc(O)c(/N=N/c2ccccc2)n1` [6-Methyl-2-(phenylazo)-3-pyridinol], the “activity … in words” value [1] is given as “Selective mGlu5 glutamate metabotropic receptor antagonist Varney et al., 1999”.
For `N[C@](CC1c2ccccc2Oc2ccccc21)(C(=O)O)[C@H]1C[C@@H]1C(=O)O` [(2S)-2-Amino-2-[(1S,2S)-2-carboxycycloprop-1-yl]-3-(xanth-9-yl) propanoic acid], the “activity … in words” value [1] is listed as “Highly potent mGlu2 glutamate metabotropic receptor antagonist Ornstein et al., 1998”.
For `N[C@H](C(=O)O)[C@@H]1[C@@H](C(=O)O)C1(F)F` [(2S,1′S,2′S)-2-(2′-Carboxy-3′,3′-difluorocyclopropyl)glycine], the “activity … in words” value [1] is given as “Glutamate metabotropic receptor agonist Shinozaki et al., 1996”.
In the case of `N[C@@H](C[C@H](CCCC(c1ccccc1)c1ccccc1)C(=O)O)C(=O)O` [(4S)-4-(4,4-Diphenylbutyl)-L-glutamic acid], the “activity … in words” value [1] is listed as “Selective and competitive mGlu2 glutamate metabotropic receptor antagonist Wermuth et al., 1996”.
In the case of `Cc1cc(C(=O)O)ccc1[C@H](N)C(=O)O` [(S)-(+)-Amino-4-carboxy-2-methylbenzeneacetic acid], the “activity … in words” value [1] is listed as “Selective mGlu1a glutamate metabotropic receptor antagonist Clarke et al., 1997”.
For `CCC(N)(CCP(C)(=O)O)C(=O)O` (stereo not drawn) [Alpha-ethyl phosphinothricin], the pKi (GS (sheep brain)) is given as 3.95.
In the case of `C[C@@](N)(CCS(C)(=N)=O)C(=O)O` (stereo partly drawn) [Alpha-methyl methionine sulfoximine], the “GS inhibition in words” value (GS [2]) is listed as “Slightly less inhibitory synthetic MS derivative Eisenberg et al., 2000”.
For `CC(N)(CCP(C)(=O)O)C(=O)O` (stereo not drawn) [Alpha-methyl phosphinothricin], the pKi (GS (sheep brain)) is given as 3.90.
For `NC1(C(=O)O)CCCC(P(=O)(O)O)C1` (stereo not shown) [Cyclohexane phosphinothricin, 1-Amino-3-phosphono-cyclohexane-carboxylic acid], the pKi (GS (sheep brain)) is given as 3.90.
In the case of `CC(CC(N)C(=O)O)P(C)(=O)O` (stereo not shown) [Gamma methyl phosphinothricin], the pKi (GS (sheep brain)) is given as 3.39.
For `CP(=O)(O)C(O)CC(N)C(=O)O` (stereo not shown) [Gamma-hydroxy phosphinothricin], the pKi (GS (sheep brain)) is listed as 4.33.
For `N[C@H](C(=O)O)c1cc(=O)[nH]o1` [Ibotenic acid], the “activity … in words” value [1] is given as “Glutamate metabotropic receptor agonist Johnston, 1968”.
For `CS(=O)(=O)CC[C@H](N)C(=O)O` [Methionine sulfone], the “GS inhibition in words” value (GS [2]) is given as “Very potent ATP-dependent inhibitor of GS activity in a number of species. First discovered in nitrogen chloride treated zein. Eisenberg et al., 2000”.
For `COC(=O)CCC(N)P(=O)(O)O` (stereo not shown) [Methyl 4-amino-4-phosphono butanate], the pKi (GS (rat liver)) is listed as 2.68.
For `CC(=O)N[C@@H](CC(=O)O)C(=O)N[C@@H](CCC(=O)O)C(=O)O` [N-Acetyl-L-aspartyl-L-glutamic acid] (Ac-Asp-Glu-OH), the “activity … in words” value [1] is given as “Highly selective mGlu3 glutamate metabotropic receptor agonist Morris et al., 1965”.
With `C1CCc2nnnn2CC1` [PTZ, pentylenetetrazole] the “GS activity in the cortex, hippocampus and thalamus” value (GS [3]) was “low”.
For `N[C@@H](CSS(=O)(=O)[O-])C(=O)O.[Na+]` [S-Sulfo-L-cysteine sodium salt], the “activity … in words” value [1] is listed as “mGlu1a and mGlu5a glutamate metabotropic receptor agonist Mewett et al., 1983”.
For `C[C@]12C[C@H](O)[C@H]3[C@@H](CCC4=CC(=O)CC[C@@]43C)[C@@H]1CC[C@@H]2C(=O)CO` [corticosterone], the adrenal weight ([4]; repeated administration of corticosterone) was “decreased the adrenal weight”.
For `NNC(=O)c1ccncc1` [isoniazid, Isoniazid], the “tested on GS activity: ligand or not” value (purified sheep brain GS) was “GS ligands”.
In the case of `[Li]` [lithium, Li2CO3], the “maximum decrease of GS activity” value (Wistar rat brain GS; at 0.01 M) was 40%.
For `N[C@@H](CCS(=O)(=O)CP(=O)(O)O)C(=O)O` [s-Phosphonomethyl homocysteine sulfone], the pKi (GS [2]) is given as 2.85.
For `N[C@@H](CC[S+]([O-])CP(=O)(O)O)C(=O)O` (stereo partly shown) [s-Phosphonomethyl homocysteine sulfoxide], the “GS inhibition in words” value (GS [2]) is listed as “Synthetic inhibitor Logusch et al., 1988 Eisenberg et at., 2000”.
In the case of `[Sr+2]` [strontium], the “maximum decrease of GS activity” value (Wistar rat brain GS; at 10^−10 M) was 75%.
With `CN1c2ccccc2C(NCCCCCCC(=O)O)c2ccc(Cl)cc2S1(=O)=O` (stereo not shown) [tianeptine, 7-[(3-chloro-6,11-dihydro-6-methyl-dibenzo[c,f][1,2]thiazepin-11-yl)amino] heptanoic acid S,S-dioxide] the adrenal weight ([4]; 21 days, versus PCB) was “higher”, the “dose of maximum effect on seizures” value (Wistar rats [5]) was 10 mg/kg and the “dose relation of the effect on seizures” value (Wistar rats [5]) was “U-shaped”. The “immobility in the forced swimming test” value (Wistar rats [6]; GF 0.1 mg/kg, tianeptine 0.5 mg/kg) was “clear decrease in immobility”, the “immobility in the forced swimming test” value (Wistar rats [6]; day 19, corticosterone 35 mg/kg s.c., versus PCB and Control) was “comparable or lower” and the “resting time in the open field task” value (Wistar rats [7]) was “higher”.
In the case of “(2S,3S,4S)-2-Methyl-2-(carboxycyclopropyl)glycine”, the “activity … in words” value [1] is given as “mGlu2 glutamate metabotropic receptor antagonist Jane et al., 1994”.
